Columns and labels:
Format in all cases: in vivo
Apera spica-venti = assay: Test Example 4: herbicidal effect by soil treatment (symbol L); settings: application herbicide amount 320 g/ha
In short: (§1)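 Seeds were sown in sterilized diluvial soil, covered with about 1.5 cm of soil, and the soil surface was sprayed with a water-diluted emulsion of the compound at a predetermined rate. Plants grew in a greenhouse at 25° C. to 30° C.; effects were scored visually 3 weeks after application.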

Digitaria ciliaris = assay: Test Example 4: herbicidal effect by soil treatment (symbol F)
In short: as §1

corn [1] = assay: Test Example 4: effect on crop by soil treatment (symbol c); settings: for c: corn, effect on crop grade: application herbicide amount 320 g/ha; for c: corn, effect grade on crop: 320 g/ha
In short: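 Crop seed is sown in spots together with several weed species in a box of sterilized diluvial soil. It is covered by about 1.5 cm of soil and kept in a greenhouse held between 25° C. and 30° C.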

rapeseed = assay: Test Example 4: effect on crop by soil treatment (symbol g); settings: for g: rapeseed, effect on crop grade: application herbicide amount 320 g/ha; for g: rapeseed, effect grade on crop: 320 g/ha
In short: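 Sterilized diluvial soil, spot sowing, ~1.5 cm soil cover; greenhouse 25–30° C.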

Lolium multiflorum Lam. = assay: Test Example 5: herbicidal effect by foliage application, plastic box (symbol K); settings: 320 g/ha, 3 weeks after application
In short: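 Emulsion formulation, diluted with water to the intended rate, was applied uniformly to leaves by small sprayer. Recipients were 14-day greenhouse-grown seedlings (25° C. to 30° C.). Assessment followed at 3 weeks.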

Monochoria vaginalis [2] = assay: Test Example 1: herbicidal activity, application before weed generation in submerged conditions (symbol C); settings: application herbicide amount 320 g/ha
In short: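 Mixed weed seeds sown in alluvial soil under 4 cm of water, with rice seedlings at the 2.5-leaf stage added. Same-day treatment: emulsion diluted to a set herbicide amount onto the water. Three weeks at 25–30 °C, then graded on a six-step scale.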

Abutilon theophrasti = assay: Test Example 4: herbicidal effect by soil treatment (symbol M)
In short: as §1

[3] = tested on: Echinochloa crus-galli var. crus-galli; assay: Test Example 4: herbicidal effect by soil treatment (symbol H)
In short: as §1

corn [4] = assay: Test Example 5: effect on crop by foliage application, plastic box (symbol c); settings: 320 g/ha, 3 weeks after application
In short: (§2)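 A greenhouse held between 25° C. and 30° C. was used to grow plants sown spot-wise, beneath ~1.5 cm of soil, in boxes of sterilized diluvial soil.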

Galium spurium = assay: Test Example 4: herbicidal effect by soil treatment (symbol Q)
In short: as §1

Avena fatua = assay: Test Example 4: herbicidal effect by soil treatment (symbol I)
In short: as §1

Chenopodium album = assay: Test Example 4: herbicidal effect by soil treatment (symbol O)
In short: as §1

soybean = assay: Test Example 5: effect on crop by foliage application, plastic box (symbol d); settings: 320 g/ha, 3 weeks after application
In short: as §2

rice plant = assay: Test Example 5: effect on crop by foliage application, plastic box (symbol b); settings: 320 g/ha, 3 weeks after application
In short: as §2

Monochoria vaginalis [5] = assay: Test Example 2: herbicidal activity, application during weed generation in submerged conditions (symbol C); settings: Table 23; application herbicide amount 320 g/ha; grade 0-5 by criteria of Test Example 1
In short: (§3)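 Each pot contained alluvial soil under 4 cm of water with seeds of all three weeds sown together. Following growth at 25° C. to 30° C. to the one- to two-leaf stage, the floodwater received diluted emulsion at a predetermined amount; visual assessment followed at 3 weeks.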

[6] = tested on: Echinochloa oryzacola Vasing.; assay: Test Example 2: herbicidal activity, application during weed generation in submerged conditions (symbol A); settings: Table 23; application herbicide amount 320 g/ha; grade 0-5 by criteria of Test Example 1
In short: as §3

Scirpus juncoides = assay: Test Example 2: herbicidal activity, application during weed generation in submerged conditions (symbol B); settings: Table 23; application herbicide amount 320 g/ha; grade 0-5 by criteria of Test Example 1
In short: as §3

[7] = application herbicide amount 320 g/ha

CCOC(=O)C(C(=O)CC1CC1)C1CC(O)=C(c2c(C)cc(C)cc2C)C1=O (stereo not drawn) [2-025]
L: Apera spica-venti, herbicidal effect grade (Apera spica-venti): 0 (Herbicidal ratio of 5% or lower (almost no effect))
F: Digitaria ciliaris, herbicidal effect grade (Digitaria ciliaris; [7]): 4 (Herbicidal ratio of 70% or higher and lower than 90%)
c: corn, effect on crop grade (corn [1]): 0 (Herbicidal ratio of 5% or lower (almost no effect))
g: rapeseed, effect on crop grade (rapeseed): 0 (Herbicidal ratio of 5% or lower (almost no effect))
K: Lolium multiflorum Lam., herbicidal effect grade (Lolium multiflorum Lam.): 5 (Herbicidal ratio of 90% or more (almost completely withered))
Herbicidal effect grade, C: Monochoria vaginalis (Monochoria vaginalis [2]): 0 (Herbicidal ratio of 5% or lower (almost no effect))
M: Abutilon theophrasti, herbicidal effect grade (Abutilon theophrasti; [7]): 0 (Herbicidal ratio of 5% or lower (almost no effect))
H: Echinochloa crus-galli var. crus-galli, herbicidal effect grade [3, 7]: 4 (Herbicidal ratio of 70% or higher and lower than 90%)
c: corn, effect on crop grade (corn [4]): 1 (Herbicidal ratio of 5% or higher and lower than 20%)
Q: Galium spurium, herbicidal effect grade (Galium spurium; [7]): 0 (Herbicidal ratio of 5% or lower (almost no effect))
I: Avena fatua, herbicidal effect grade (Avena fatua; [7]): 0 (Herbicidal ratio of 5% or lower (almost no effect))
O: Chenopodium album, herbicidal effect grade (Chenopodium album; [7]): 0 (Herbicidal ratio of 5% or lower (almost no effect))
d: soybean, effect on crop grade (soybean): 0 (Herbicidal ratio of 5% or lower (almost no effect))
b: directly sowed rice plant, effect on crop grade (rice plant): 4 (Herbicidal ratio of 70% or higher and lower than 90%)

CON=C(C)CC1CC(OC(=O)N2CCN(C)CC2)=C(c2c(C)cc(C)cc2C)C1=O (stereo not drawn) [1-152]
Herbicidal effect grade, C: Monochoria vaginalis (Monochoria vaginalis [5]): 0 (Herbicidal ratio of 5% or lower (almost no effect))
Herbicidal effect grade, A: Echinochloa oryzacola Vasing. [6]: 2 (Herbicidal ratio of 20% or higher and lower than 40%)
F: Digitaria ciliaris, herbicidal effect grade (Digitaria ciliaris; 320 g/ha): 0 (Herbicidal ratio of 5% or lower (almost no effect))
c: corn, effect grade on crop (corn [1]): 0 (Herbicidal ratio of 5% or lower (almost no effect))
g: rapeseed, effect grade on crop (rapeseed): 0 (Herbicidal ratio of 5% or lower (almost no effect))
K: Lolium multiflorum Lam., herbicidal effect (criteria 0-5) (Lolium multiflorum Lam.): 5 (Herbicidal ratio of 90% or more (almost completely withered))
Herbicidal effect grade, C: Monochoria vaginalis (Monochoria vaginalis [2]): 0 (Herbicidal ratio of 5% or lower (almost no effect))
M: Abutilon theophrasti, herbicidal effect grade (Abutilon theophrasti; 320 g/ha): 0 (Herbicidal ratio of 5% or lower (almost no effect))
Herbicidal effect grade, B: Scirpus juncoides (Scirpus juncoides): 0 (Herbicidal ratio of 5% or lower (almost no effect))
H: Echinochloa crus-galli var. crus-galli, herbicidal effect grade ([3]; 320 g/ha): 0 (Herbicidal ratio of 5% or lower (almost no effect))
c: corn, effect on crop (criteria 0-5) (corn [4]): 2 (Herbicidal ratio of 20% or higher and lower than 40%)
Q: Galium spurium, herbicidal effect grade (Galium spurium; 320 g/ha): 0 (Herbicidal ratio of 5% or lower (almost no effect))
I: Avena fatua, herbicidal effect grade (Avena fatua; 320 g/ha): 0 (Herbicidal ratio of 5% or lower (almost no effect))
O: Chenopodium album, herbicidal effect grade (Chenopodium album; 320 g/ha): 0 (Herbicidal ratio of 5% or lower (almost no effect))
d: soybean, effect on crop (criteria 0-5) (soybean): 1 (Herbicidal ratio of 5% or higher and lower than 20%)
b: directly sowed rice plant, effect on crop (criteria 0-5) (rice plant): 5 (Herbicidal ratio of 90% or more (almost completely withered))

Cc1cc(C)c(C2=C(O)CC(CC(=O)c3ccc(F)cc3)C2=O)c(C)c1 (stereo not drawn) [2-032]
Herbicidal effect grade, C: Monochoria vaginalis (Monochoria vaginalis [5]): 0 (Herbicidal ratio of 5% or lower (almost no effect))
Herbicidal effect grade, A: Echinochloa oryzacola Vasing. [6]: 4 (Herbicidal ratio of 70% or higher and lower than 90%)
F: Digitaria ciliaris, herbicidal effect grade (Digitaria ciliaris; [7]): 4 (Herbicidal ratio of 70% or higher and lower than 90%)
c: corn, effect on crop grade (corn [1]): 1 (Herbicidal ratio of 5% or higher and lower than 20%)
g: rapeseed, effect on crop grade (rapeseed): 1 (Herbicidal ratio of 5% or higher and lower than 20%)
K: Lolium multiflorum Lam., herbicidal effect grade (Lolium multiflorum Lam.): 5 (Herbicidal ratio of 90% or more (almost completely withered))
Herbicidal effect grade, C: Monochoria vaginalis (Monochoria vaginalis [2]): 1 (Herbicidal ratio of 5% or higher and lower than 20%)
M: Abutilon theophrasti, herbicidal effect grade (Abutilon theophrasti; [7]): 0 (Herbicidal ratio of 5% or lower (almost no effect))
Herbicidal effect grade, B: Scirpus juncoides (Scirpus juncoides): 1 (Herbicidal ratio of 5% or higher and lower than 20%)
H: Echinochloa crus-galli var. crus-galli, herbicidal effect grade [3, 7]: 4 (Herbicidal ratio of 70% or higher and lower than 90%)
c: corn, effect on crop grade (corn [4]): 1 (Herbicidal ratio of 5% or higher and lower than 20%)
Q: Galium spurium, herbicidal effect grade (Galium spurium; [7]): 0 (Herbicidal ratio of 5% or lower (almost no effect))
I: Avena fatua, herbicidal effect grade (Avena fatua; [7]): 0 (Herbicidal ratio of 5% or lower (almost no effect))
O: Chenopodium album, herbicidal effect grade (Chenopodium album; [7]): 0 (Herbicidal ratio of 5% or lower (almost no effect))
d: soybean, effect on crop grade (soybean): 0 (Herbicidal ratio of 5% or lower (almost no effect))
b: directly sowed rice plant, effect on crop grade (rice plant): 5 (Herbicidal ratio of 90% or more (almost completely withered))

CON=C(C)CC1CC(OC(=O)N(C)c2ccccc2)=C(c2c(C)cc(C)cc2C)C1=O (stereo not drawn) [1-159]
Herbicidal effect grade, C: Monochoria vaginalis (Monochoria vaginalis [5]): 3 (Herbicidal ratio of 40% or higher and lower than 70%)
Herbicidal effect grade, A: Echinochloa oryzacola Vasing. [6]: 4 (Herbicidal ratio of 70% or higher and lower than 90%)
F: Digitaria ciliaris, herbicidal effect grade (Digitaria ciliaris; 320 g/ha): 4 (Herbicidal ratio of 70% or higher and lower than 90%)
c: corn, effect grade on crop (corn [1]): 0 (Herbicidal ratio of 5% or lower (almost no effect))
g: rapeseed, effect grade on crop (rapeseed): 0 (Herbicidal ratio of 5% or lower (almost no effect))
K: Lolium multiflorum Lam., herbicidal effect grade (Lolium multiflorum Lam.): 5 (Herbicidal ratio of 90% or more (almost completely withered))
Herbicidal effect grade, C: Monochoria vaginalis (Monochoria vaginalis [2]): 0 (Herbicidal ratio of 5% or lower (almost no effect))
M: Abutilon theophrasti, herbicidal effect grade (Abutilon theophrasti; 320 g/ha): 0 (Herbicidal ratio of 5% or lower (almost no effect))
Herbicidal effect grade, B: Scirpus juncoides (Scirpus juncoides): 1 (Herbicidal ratio of 5% or higher and lower than 20%)
H: Echinochloa crus-galli var. crus-galli, herbicidal effect grade ([3]; 320 g/ha): 3 (Herbicidal ratio of 40% or higher and lower than 70%)
c: corn, effect on crop grade (corn [4]): 0 (Herbicidal ratio of 5% or lower (almost no effect))
Q: Galium spurium, herbicidal effect grade (Galium spurium; 320 g/ha): 0 (Herbicidal ratio of 5% or lower (almost no effect))
I: Avena fatua, herbicidal effect grade (Avena fatua; 320 g/ha): 0 (Herbicidal ratio of 5% or lower (almost no effect))
O: Chenopodium album, herbicidal effect grade (Chenopodium album; 320 g/ha): 0 (Herbicidal ratio of 5% or lower (almost no effect))
d: soybean, effect on crop grade (soybean): 1 (Herbicidal ratio of 5% or higher and lower than 20%)
b: directly sowed rice plant, effect on crop grade (rice plant): 3 (Herbicidal ratio of 40% or higher and lower than 70%)

CON=C(C)CC1CC(OC(=O)c2ccccc2OC(F)(F)F)=C(c2c(C)cc(C)cc2C)C1=O (stereo not drawn) [1-155]
Herbicidal effect grade, C: Monochoria vaginalis (Monochoria vaginalis [5]): 3 (Herbicidal ratio of 40% or higher and lower than 70%)
Herbicidal effect grade, A: Echinochloa oryzacola Vasing. [6]: 5 (Herbicidal ratio of 90% or more (almost completely withered))
F: Digitaria ciliaris, herbicidal effect grade (Digitaria ciliaris; 320 g/ha): 5 (Herbicidal ratio of 90% or more (almost completely withered))
c: corn, effect grade on crop (corn [1]): 3 (Herbicidal ratio of 40% or higher and lower than 70%)
g: rapeseed, effect grade on crop (rapeseed): 4 (Herbicidal ratio of 70% or higher and lower than 90%)
K: Lolium multiflorum Lam., herbicidal effect (criteria 0-5) (Lolium multiflorum Lam.): 5 (Herbicidal ratio of 90% or more (almost completely withered))
Herbicidal effect grade, C: Monochoria vaginalis (Monochoria vaginalis [2]): 1 (Herbicidal ratio of 5% or higher and lower than 20%)
M: Abutilon theophrasti, herbicidal effect grade (Abutilon theophrasti; 320 g/ha): 5 (Herbicidal ratio of 90% or more (almost completely withered))
Herbicidal effect grade, B: Scirpus juncoides (Scirpus juncoides): 5 (Herbicidal ratio of 90% or more (almost completely withered))
H: Echinochloa crus-galli var. crus-galli, herbicidal effect grade ([3]; 320 g/ha): 5 (Herbicidal ratio of 90% or more (almost completely withered))
c: corn, effect on crop (criteria 0-5) (corn [4]): 4 (Herbicidal ratio of 70% or higher and lower than 90%)
Q: Galium spurium, herbicidal effect grade (Galium spurium; 320 g/ha): 0 (Herbicidal ratio of 5% or lower (almost no effect))
I: Avena fatua, herbicidal effect grade (Avena fatua; 320 g/ha): 4 (Herbicidal ratio of 70% or higher and lower than 90%)
O: Chenopodium album, herbicidal effect grade (Chenopodium album; 320 g/ha): 0 (Herbicidal ratio of 5% or lower (almost no effect))
d: soybean, effect on crop (criteria 0-5) (soybean): 3 (Herbicidal ratio of 40% or higher and lower than 70%)
b: directly sowed rice plant, effect on crop (criteria 0-5) (rice plant): 5 (Herbicidal ratio of 90% or more (almost completely withered))
